Measured values taken from the NIST ThermoML archive (doi:10.1021/je700260f).

Conditions: 283.15 K, Liquid, Vibrating tube method

FC(C(F)(F)F)C(F)(F)F [1,1,1,2,3,3,3-heptafluoropropane]
Conditions	mass density [kg/m3]
6297 kPa	1481.2
6322 kPa	1481.4
6344 kPa	1481.4
6375 kPa	1481.6
6406 kPa	1481.7
6431 kPa	1481.9
6461 kPa	1481.9
6486 kPa	1482.3
6517 kPa	1482.3
6547 kPa	1482.4
6577 kPa	1482.5
6611 kPa	1482.7
6635 kPa	1482.9
6659 kPa	1483.1
6686 kPa	1483.1
6713 kPa	1483.1
6738 kPa	1483.2
6762 kPa	1483.3
6790 kPa	1483.5
6822 kPa	1483.7
6853 kPa	1483.9
6877 kPa	1484
6913 kPa	1484.2
6937 kPa	1484.3
6998 kPa	1484.5
7022 kPa	1484.7
7050 kPa	1484.8
7079 kPa	1485
7107 kPa	1485
7134 kPa	1485.2
7154 kPa	1485.2
7185 kPa	1485.5
7209 kPa	1485.6
7237 kPa	1485.7
7266 kPa	1485.9
7293 kPa	1485.9
7325 kPa	1486.1
7349 kPa	1486.2
7385 kPa	1486.3
7415 kPa	1486.5
7443 kPa	1486.7
8348 kPa	1490.8
8383 kPa	1491.1
8413 kPa	1491.1
8453 kPa	1491.2
8481 kPa	1491.5
8520 kPa	1491.6
8545 kPa	1491.6
8576 kPa	1491.9
8606 kPa	1492
8641 kPa	1492.2
8667 kPa	1492.3
8702 kPa	1492.4
8724 kPa	1492.5
8755 kPa	1492.6
8782 kPa	1492.8
8808 kPa	1492.9
8841 kPa	1492.9
8868 kPa	1493.1
8904 kPa	1493.4
8936 kPa	1493.4
8973 kPa	1493.5
9000 kPa	1493.8
9041 kPa	1493.9
9068 kPa	1494
9104 kPa	1494.2
9140 kPa	1494.3
9167 kPa	1494.5
9194 kPa	1494.6
9230 kPa	1494.7
9266 kPa	1495
9294 kPa	1495.1
9330 kPa	1495.1
9361 kPa	1495.3
9403 kPa	1495.5
9441 kPa	1495.7
9483 kPa	1495.8
9641 kPa	1496.6
9679 kPa	1496.6
9707 kPa	1496.9
9754 kPa	1497
9777 kPa	1497.2
9809 kPa	1497.3
9842 kPa	1497.5
9875 kPa	1497.5
9912 kPa	1497.8
9941 kPa	1497.8
9979 kPa	1498
10009 kPa	1498.1
10055 kPa	1498.3
10080 kPa	1498.4
10109 kPa	1498.5
10139 kPa	1498.7
10164 kPa	1498.8
10198 kPa	1499
10233 kPa	1499.2
10254 kPa	1499.2
10289 kPa	1499.3
10314 kPa	1499.5
10348 kPa	1499.7
10370 kPa	1499.7
10399 kPa	1499.7
10424 kPa	1500.1
